Experimental data reported in patent US20230159509A1 (Amathus Therapeutics, Inc., priority 2020, published 2023).

Key:
[1] = molecular target: T1, TRAP1 enzyme (Homo sapiens, UniProt Q12931); assay: Malachite green phosphate assay of TRAP1 ATPase activity; type: biochemical; conditions: for EC50: concentration for half maximal activation, read-out: Malachite Green Fluor DRC: GeoMean EC50; for Emax: maximal percent activation, read-out: Malachite Green Fluor DRC: Mean Emax
T1 construct: 150 nM Trap1 enzyme was incubated with various concentrations of the test compound
T1 sequence (Q12931 60-704): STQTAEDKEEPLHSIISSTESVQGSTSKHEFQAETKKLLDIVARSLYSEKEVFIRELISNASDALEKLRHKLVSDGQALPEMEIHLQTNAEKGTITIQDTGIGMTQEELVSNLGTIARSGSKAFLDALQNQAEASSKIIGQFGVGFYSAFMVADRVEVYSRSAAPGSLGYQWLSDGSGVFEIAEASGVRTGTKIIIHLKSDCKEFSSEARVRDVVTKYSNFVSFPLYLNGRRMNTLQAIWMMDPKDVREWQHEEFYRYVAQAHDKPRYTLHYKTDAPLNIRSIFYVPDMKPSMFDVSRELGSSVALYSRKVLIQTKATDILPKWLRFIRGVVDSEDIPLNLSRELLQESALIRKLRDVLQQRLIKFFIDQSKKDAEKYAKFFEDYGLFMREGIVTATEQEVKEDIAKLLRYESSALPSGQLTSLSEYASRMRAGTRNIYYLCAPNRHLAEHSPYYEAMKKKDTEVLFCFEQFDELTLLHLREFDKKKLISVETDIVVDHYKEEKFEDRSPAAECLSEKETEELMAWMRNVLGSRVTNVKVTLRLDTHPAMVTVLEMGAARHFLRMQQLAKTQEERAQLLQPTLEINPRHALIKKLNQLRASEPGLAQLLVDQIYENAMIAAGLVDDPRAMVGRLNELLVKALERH
Protocol: The Potency of test compounds to modulate the ATPase activity of TRAP1 enzyme was evaluated using malachite green phosphatase assay. The assay is based on quantification of the green complex formed between Malachite Green, molybdate and inorganic phosphate generated in the phosphatase reaction. Assays were performed using a Malachite Green assay kit. All the assays were carried out in a 96-well transparent plate. The buffer used was 50 mM HEPES (pH 7.5), 20 mM KCl, 4 mM MgCl2 and 0.05% BSA. 150 nM Trap1 enzyme was incubated with various concentrations of the test compound (0.78 μM-100 μM) at 37° C. for 30 mins. 20 μM ATP was added to each well (except blank wells) to start the reaction and the plate was then incubated at 37° C. for 180 mins. 10 μl of the reaction volume of each sample was then transferred to a white 384-well proxiplate in quadruplets. 2.5 μl of Malachite Green reagent was added to all the wells and the plate was equilibrated for 15 mins. The reaction was stopped by adding 12% H2SO4 and the plate was read for fluorescence at 620 nm (λex=573 nm). The amount of phosphate released was estimated from a phosphate standard curve generated at the same experimental conditions. Emax (Maximal percent activation) and EC50 (concentration of test compound for half maximal activation) were estimated by fitting the dose response data to a sigmoidal curve fitting equation using Graphpad Prism software V.7.0.

[2] = molecular target: T1, TRAP1 enzyme; assay: ADP Glo assay of TRAP1 ATPase activity; type: biochemical; conditions: for EC50: concentration for half maximal activation, read-out: ADP GLO DRC: GeoMean EC50; for Emax: maximal percent activation, read-out: ADP GLO DRC: Mean Emax
Summary of the method: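 Compound (0.79–100 μM) was preincubated 30 min at 37° C with 150 nM TRAP1 in 25 mM Pipes pH 7.5, 40 mM KCl, 0.05 mM MgCl2. Reaction started with 20 μM ATP, 60 min at 37° C. ADP measured by luminescence against a standard curve; activation fitted sigmoidally for EC50 and Emax.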

[3] = test system: tamoxifen-induced polycystic kidney disease model (Ksp-TamCre×PkdlLox); assay: Tamoxifen-induced polycystic kidney disease mouse model; type: in vivo; conditions: compound 1206 10 mg/kg po QD 14d; for 2 KW/BW ratio (kidney weight/body weight): compared to tamoxifen-induced vehicle control group
Protocol: Compound 1206 (10 mg/kg po, QD dosing for 14d, n=13/group) was assessed in a tamoxifen-induced polycystic kidney disease model (Ksp-TamCre×PkdlLox; Human Molecular Genetics, 2007, Vol. 16, No. 24, 3188-3196). A negative control group induced with tamoxifen (Vehicle) and a negative control group not induced with tamoxifen (No Tam) were included. A positive control group was dosed with everolimus. Mice were dosed orally on both PND 10, 11 with 25 mg/kg tamoxifen. Oral dosage of vehicle, compound 1206, and everolimus started from PND 14 onwards to PND 27. The readouts of this study were body weight, kidney weight, BUN levels and histopathology assessment including cyst index.
The fixated kidney half was processed for paraffin embedding and further pathological assessment after hematoxylin-eosin staining. One piece of each H-E stained kidney half was observed by a board certified pathologist, who read a cross section of the kidney. For each kidney one section was evaluated. From this section an overview photo was taken (2X) and used to calculate the cystic index. The cystic areas were identified by a color thresholding method using an image analysis system (Image software, public domain software, NIH, Bethesda, Md.). The threshold area was calculated within a defined ROI (region of interest) representing the total area analyzed. This area represents at least 70-80% of the entire kidney section. The cystic index (CI) is defined as the percentage of the area of cysts lumen (in pixels) over the total kidney area in the selected ROI (in pixels).

[4] = test system: mIMCD3 Pkd1 KO cells; assay: Mouse cell derived cyst assay; type: cell-based; conditions: Pkd 1 KO mouse cell derived cyst forming assay; FIG. 16
Protocol: Mouse cell derived cyst assays were performed as described in Booij, Tijmen H et al., SLAS discovery: advancing life sciences R & D vol. 22.8 (2017): 974-984, or as described below.
Murine inner medullary collecting duct cell line (mIMCD3 Pkd1^−/− cells) • mIMCD3 Pkd1 KO cells were seeded in 384 wells plates in extracellular matrix. • 4 days after seeding, cultures were co-exposed to treatments and stimuli (2.5 μM forskolin); • After 72 h, cultures were fixed, stained for nuclei and actin cytoskeleton and imaged with 4× magnification; and • Image analysis of the 3D stack was done using Ominer™ image analysis software.

[5] = compared with tamoxifen-induced vehicle control group

Compound | EC50 [1] [µM] | Emax [1] [%] | EC50 [2] [µM] | Emax [2] [%] | 2 KW/BW ratio (kidney weight/body weight) [3] | cystic index [3, 5] | urea levels (BUN) [3, 5] | cyst formation [4]
O=C(Nc1cccc(S(=O)(=O)Nc2ccc(Cl)cc2)n1)c1cnc(-c2ccccc2)[nH]1 [compound 612, N-(6-(N-(4-chlorophenyl)sulfamoyl)pyridin-2-yl)-2-phenyl-1H-imidazole-5-carboxamide] | 20 to 100 | 200 to 300 |  |  |  |  |  | 
COc1ncc(NC(=O)c2ncc(-c3ccccc3)o2)cc1S(=O)(=O)Nc1c(Cl)cccc1Cl [compound 670, N-(5-(N-(2,6-dichlorophenyl)sulfamoyl)-6-methoxypyridin-3-yl)-5-phenyloxazole-2-carboxamide] | 20 to 100 | 200 to 300 | 20 to 100 | 160 to 199 |  |  |  | 
COc1ncc(NC(=O)c2ccc3c(c2)n(C)c(=O)n3C)cc1S(=O)(=O)Nc1ccc(Cl)cc1 [compound 1206, N-(5-(N-(4-chlorophenyl)sulfamoyl)-6-methoxypyridin-3-yl)-1,3-dimethyl-2-oxo-2,3-dihydro-1H-benzo[d]imidazole-5-carboxamide] |  |  | < 10 | 119 to 159 | significantly lower | significantly lower | significantly lower | preventing cyst formation
CO[C@H]1C[C@@H]2CC[C@@H](C)[C@@](O)(O2)C(=O)C(=O)N2CCCC[C@H]2C(=O)O[C@H]([C@H](C)C[C@@H]2CC[C@@H](OCCO)[C@H](OC)C2)CC(=O)[C@H](C)/C=C(\C)[C@@H](O)[C@@H](OC)C(=O)[C@H](C)C[C@H](C)/C=C/C=C/C=C/1C [everolimus, reference compound] |  |  |  |  | significantly lower | significantly lower |  | 
